Literature values, collected in patent publication US20090258907A1, “COMPOUNDS USEFUL AS INHIBITORS OF ROCK KINASES” (ABBOTT LABORATORIES, priority 2008, published 2009).

Key:
[1] = test system: vascular smooth muscle cell (VSMC); settings: vein grafts, weeks following the procedure
[2] = experimental myocardial infarction (MI); rat chronic hypertension induced congestive heart failure
[3] = mouse, in vivo
[4] = CNS ischemic conditions
[5] = Zucker obese rats, 4 weeks
[6] = OLETF rats, high dose

O=S(=O)(c1cccc2cnccc12)N1CCCNCC1 [fasudil]
VSMC apoptosis [1]: enhanced
intimal thickening and VSMC proliferation [1]: significantly suppressed
effect on ischemia-reperfusion injury, myocardial infarct size and myocardial fibrosis [2]: decrease ischemia-reperfusion injury, myocardial infarct size, and myocardial fibrosis
efficacy in animal models of epileptogenesis [3]: efficacy
cerebral blood flow and neuroprotection [4]: increased cerebral blood flow and was neuroprotective
blood pressure, glucose and lipid metabolism, insulin signalling, endothelial dysfunction [5]: reduced blood pressure, corrected glucose and lipid metabolism, improved insulin signalling and endothelial dysfunction
development of diabetes, obesity, dyslipidemia; serum adiponectin [6]: completely suppressed the development of diabetes, obesity, and dyslipidemia and increased serum adiponectin levels
